Our source for the IC50 and EC50 values is US20240327356A1, “PYRIMIDINE BASED RAS MODULATORS AND USES THEREOF” (QUANTA THERAPEUTICS, INC., priority 2021, published 2024).

In assay [1] the test system is Phospho-ERK (Thr202/Tyr204) in MiaPaCa-2 cells. Nature of the assay: pERK inhibition in MiaPaca-2 cell line (HTRF). The format is cell-based. Particulars: Homo sapiens, MIA PaCa-2, 1 hour incubation with compound. Put shortly:
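Following 16 h attachment, MiaPaCa-2 cells were given compounds for 1 h (final 0.5% DMSO), then lysed. Phospho-ERK (Thr202/Tyr204) detected by HTRF (665/620 nm) after 4 h detection at ambient temperature; IC50 from 4-parameter logistic fit.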

The subject of assay [2] is pERK (ERK phospho-T202/Y204) in SW-480 cells. Nature of the assay: pERK inhibition in SW-480 cell line (HTRF). The format is cell-based. Particulars: Homo sapiens, SW480, 1 hour incubation with compound. The procedure:
SW-480 cells were cultured in Leibovitz's L15 (Gibco Cat. No. 11415064), supplemented with 10% fetal bovine serum (Gibco, Cat. No. 1993708), and 1% penicillin and streptomycin. Cells were grown at 37° C., under atmospheric conditions without additional CO2. Cells were seeded into a 96-well tissue-culture treated plate (Greiner, Cat. No. 655180) at a density of 30,000 cell per well, and allowed to adhere for 16 hours before the media was removed, and cells were treated with compounds diluted into culture media at the indicated concentrations. After 1 hour of incubation in the presence of compound, cells were harvested to measure pERK levels using the lysis buffer supplied with the Homogenous Time Resolved Fluorescence pERK kit (HTRF, Cisbio Advance ERK phospho-T202/Y204, Cat. No. 64AERPEG). Lysates were transferred to a 384-well low-volume white plate (PerkinElmer, Cat. No. 6008280) and then treated with the detection reagents supplied by the HTRF kit, according to the “2-plate” protocol supplied by the manufacturer, and incubated for 4-hours at ambient temperature in darkness. Assay plates were read at two fluorescent wavelengths (665 nm and 620 nm) using an Envision plate reader (Perkin Elmer) and data was processed and fitted to a 4-parameter logistic model using Graphpad Prism 8.0 to calculate IC50 values.

Assay [3] addresses KRAS^G12D-FMe.RAF1^RBDCRD complex (Homo sapiens, UniProt P01116, G12D). Put plainly: SHG assay: binding to bilayer-tethered KRAS G12D/RAF1 complex. The conditions noted are these: GppNHp-loaded complex on PS bilayer; compound 0.027-40 μM, monitored over 60 min. An outline of the steps: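 GppNHp-loaded KRAS G12D-FMe and RAF1 RBDCRD (equimolar) were tethered overnight at 4° C on a PS bilayer. Compounds at 0.027-40 μM in pH 7.4 Hepes buffer with 5 μM GppNHp were added. Second harmonic signal (800 nm excitation, 400 nm emission) was tracked every 5 min for 60 min.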

Consider `Cc1ccc(-c2ncc(CNC(=O)C3(C#N)CC3)c(N3CCC(N)CC3)n2)cc1Cl` [Compound 67], for which the IC50 in assay [1] lay within 0.1 to 1 µM; in assay [2], 1 to 10 µM. The half-maximal effective concentration (EC50) in assay [3] was in the range of 1 to 10 µM.

As for `Cc1ccc(-c2ncc(CNC(=O)C3(F)CC3)c(N3C[C@@H]4[C@@H](N)[C@@H]4C3)n2)cc1Cl` [Compound 84], the IC50 in assay [1] and in assay [2] was 1 to 10 µM in each case. Also, the EC50 in assay [3] fell in the range of 1 to 10 µM.

As for `Cc1cc(-c2ncc(CNC(=O)C3(C#N)CC3)c(N3CCC(CN)C3)n2)ccc1Cl` (stereo not drawn) [Compound 52], the concentration for half-maximal inhibition (IC50) in assay [1] and in assay [2] was 1 to 10 µM each time. In addition, the EC50 in assay [3] was in the range of 10 to 50 µM.

For the compound `Cc1ccc(-c2ncc(CNC(=O)C3(C#N)CC3)c(N3CCC(CN)C3)n2)cc1Cl` (stereo not drawn) [Compound 41], the figures for the IC50 in assay [1] and in assay [2] were 0.1 to 1 µM and 1 to 10 µM, respectively. Moreover, the EC50 in assay [3] fell in the range of 1 to 10 µM.

With `Cc1ccc(-c2ncc(CNC(=O)C3(F)CC3)c(N3CCN(C)CC3)n2)cc1Cl` [Compound 83], the IC50 in assay [1] fell in the range of 1 to 10 µM; in assay [2] it was 10 to 50 µM. For the same compound, in assay [3], the EC50 was in the range of 10 to 50 µM.

Regarding `NCC1CCN(c2nc(-c3ccc(C(F)(F)F)c(Cl)c3)ncc2N2CCCC2=O)C1` (stereo not drawn) [Compound 90, 1-[4-[3-(aminomethyl)pyrrolidin-1-yl]-2-[3-chloro-4-(trifluoromethyl)phenyl]pyrimidin-5-yl]pyrrolidin-2-one], the 50% inhibitory concentration (IC50) in assay [1] and in assay [2] was 1 to 10 µM throughout. In addition, the half-maximal effective concentration (EC50) in assay [3] fell in the range of 1 to 10 µM.
